# Data: ChEMBL document CHEMBL1667742, “Angiotensin II receptor type 1 (AT1) selective nonpeptidic antagonists--a perspective” (Bioorg Med Chem, 2010)
# Where a chain is given by its changes, count along the chain named.
# Assays:
# [1] = target: T1, Type-1 angiotensin II receptor (Oryctolagus cuniculus, UniProt P34976); test: Displacement of [125I]-Sar1Ile8-angiotensin 2 from angiotensin AT1 receptor in rabbit aortic membranes; format: cell membranes
# T1 sequence (P34976 whole entry): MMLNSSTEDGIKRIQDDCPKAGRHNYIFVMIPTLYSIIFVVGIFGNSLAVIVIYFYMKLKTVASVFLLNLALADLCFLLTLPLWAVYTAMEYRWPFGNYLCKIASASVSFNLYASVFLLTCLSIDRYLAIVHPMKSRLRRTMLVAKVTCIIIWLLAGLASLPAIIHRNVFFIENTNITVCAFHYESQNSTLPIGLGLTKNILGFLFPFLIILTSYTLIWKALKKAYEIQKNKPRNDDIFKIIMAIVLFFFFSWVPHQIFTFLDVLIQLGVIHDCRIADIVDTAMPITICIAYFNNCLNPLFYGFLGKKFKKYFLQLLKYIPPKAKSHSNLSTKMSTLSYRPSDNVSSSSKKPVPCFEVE
# [2] = Antagonist activity at angiotensin AT1 receptor in rat uterine membranes; format: functional, cell membranes
# [3] = target: T1, Type-1 angiotensin II receptor; test: Antagonist activity at angiotensin AT1 receptor in rabbit aorta assessed as reduction of angiotensin 2-induced contractile response; format: functional, tissue-based; conditions: read-out: pA2 (converted)
# Rattus norvegicus [4] = test: Antihypertensive activity in po dosed conscious goldblatt hypertensive rat model assessed as reduction of angiotensin 2-induced mean arterial blood pressure; format: functional; conditions: Artery
# [5] = (§1) Antagonist activity at angiotensin AT1 receptor in rat liver membranes; format: functional, cell membranes, Membrane
# [6] = Displacement of radiolabeled angiotensin2 from angiotensin AT1 receptor in rat adrenal cortex membranes; format: cell membranes, Membrane
# [7] = Binding affinity to angiotensin AT1 receptor in rat liver membranes; format: cell membranes, Membrane
# [8] = Displacement of radiolabeled angiotensin2 from angiotensin AT1 receptor in rat vascular smooth muscle
# [9] = target: T2, Type-1 angiotensin II receptor (Bos taurus) (UniProt P25104); test: Binding affinity to angiotensin AT1 receptor in bovine adrenal cortex membranes; format: cell membranes; conditions: Membrane
# T2 sequence (whole entry): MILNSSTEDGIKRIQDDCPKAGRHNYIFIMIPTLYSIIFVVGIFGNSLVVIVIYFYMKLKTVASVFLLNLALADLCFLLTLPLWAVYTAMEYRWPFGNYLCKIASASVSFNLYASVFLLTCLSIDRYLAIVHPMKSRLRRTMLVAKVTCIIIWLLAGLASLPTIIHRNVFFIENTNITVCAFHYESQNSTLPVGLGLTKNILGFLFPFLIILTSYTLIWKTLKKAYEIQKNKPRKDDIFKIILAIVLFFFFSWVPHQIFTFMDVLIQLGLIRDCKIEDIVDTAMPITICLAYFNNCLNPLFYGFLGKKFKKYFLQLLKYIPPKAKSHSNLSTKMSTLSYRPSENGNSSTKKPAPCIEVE
# Rattus norvegicus [10] = test: Antihypertensive activity in po dosed renal hypertensive rat model; format: functional; conditions: read-out: ED50
# [11] = Antagonist activity at angiotensin AT1 receptor in rat kidney homogenates; format: functional, tissue-based
# Rattus norvegicus [12] = test: Antihypertensive activity in iv dosed renal hypertensive rat model; format: functional; conditions: read-out: ED50
# [13] = Antagonist activity at angiotensin AT1 receptor in rat adrenal cortical membranes; format: functional, cell membranes
# Rattus norvegicus [14] = test: Antihypertensive activity in renal hypertensive rat model assessed as reduction of mean arterial blood pressure at 10 mg/kg, po; format: functional, Artery; design: scale not given: the % may be the effect or the level left
# Rhesus monkey [15] = test: Antihypertensive activity in salt depleted normotensive monkey model assessed as reduction of blood pressure at 10 mg/kg, po; format: functional, Macaca mulatta; design: scale not given: the % may be the effect or the level left
# [16] = target: T3, Type-1 angiotensin II receptor (Oryctolagus cuniculus) (UniProt P34976); test: (§2) Antagonist activity at angiotensin AT1 receptor in rabbit aorta; format: functional, tissue-based
# T3 sequence (whole entry): T1 sequence (P34976 whole entry)
# Rattus norvegicus [17] = test: Antihypertensive activity in renal hypertensive rat model assessed as reduction of mean arterial blood pressure at 30 mg/kg, po; format: functional, Artery; design: scale not given: the % may be the effect or the level left
# [18] = target: T1, Type-1 angiotensin II receptor; test: Antagonist activity at angiotensin AT1 receptor in rabbit thoracic aortic rings; format: functional; conditions: read-out: pA2 (converted)
# Rattus norvegicus [19] = test: Antihypertensive activity in po dosed renal hypertensive rat model assessed as reduction of angiotensin 2-induced blood pressure up to 24 hrs; format: functional
# [20] = Binding affinity to angiotensin AT1 receptor in rat lung membranes; format: cell membranes, Membrane
# [21] = Binding affinity to angiotensin AT1 receptor in rat cortical membranes; format: cell membranes
# [22] = target: T1, Type-1 angiotensin II receptor; test: as §2; format: functional, tissue-based
# [23] = Antagonist activity at angiotensin AT1 receptor in rat mesenteric artery; format: functional
# [24] = target: T4, Type-1 angiotensin II receptor (Homo sapiens) (UniProt P30556); test: (§3) Binding affinity to angiotensin AT1 receptor
# T4 sequence (whole entry): T1 sequence (P34976 whole entry) with M2I, A49V, V254I, V270I, H272R, K311R, S349T, V353A
# Rattus norvegicus [25] = test: Inhibition of angiotensin 2-induced response in iv dosed pithed normotensive rat; format: functional
# Rattus norvegicus [26] = test: Inhibition of angiotensin 2-induced response in intraduodenally dosed pithed normotensive rat; format: functional; conditions: Rattus norvegicus, intraduodenal
# Rattus norvegicus [27] = species on record: Rattus norvegicus; test: Antihypertensive activity in spontaneous hypertensive rat model assessed as reduction of blood pressure; format: functional
# Rattus norvegicus [28] = test: Ratio of compound ED50 to losartan ED50 for po dosed renal hypertensive rat model; format: functional
# [29] = target: T4, Type-1 angiotensin II receptor (Homo sapiens); test: Antagonist activity at angiotensin AT1 receptor; format: functional
# [30] = target: T4, Type-1 angiotensin II receptor (Homo sapiens); test: Ratio of compound Ki to losartan Ki for angiotensin AT1 receptor
# Rattus norvegicus [31] = test: Antihypertensive activity in furosemide-treated sodium depleted rat model assessed as reduction of blood pressure at 10 mg/kg, po; format: functional
# Rattus norvegicus [32] = species on record: Rattus norvegicus; test: as §1; format: functional, cell membranes; conditions: Membrane
# [33] = Half life in rat; format: ADME, organism-based; conditions: in vivo
# [34] = Oral bioavailability in rat; format: ADME, organism-based; conditions: in vivo
# Rattus norvegicus [35] = test: Antihypertensive activity in furosemide-treated sodium depleted rat model assessed as reduction of blood pressure at 3 mg/kg, po; format: functional
# [36] = target: T5, Type-1 angiotensin II receptor (Homo sapiens, UniProt P30556); test: as §3
# T5 sequence (P30556 whole entry): T1 sequence (P34976 whole entry) with M2I, A49V, V254I, V270I, H272R, K311R, S349T, V353A
# Rhesus monkey [37] = test: Antihypertensive activity in rhesus monkey assessed as inhibition of angiotensin 2-induced pressor response at 10 mg/kg, po after 4 to 24 hrs; format: functional; conditions: Macaca mulatta
# Rattus norvegicus [38] = species on record: Rattus norvegicus; test: Antihypertensive activity in renal hypertensive rat model assessed as reduction of blood pressure; format: functional
# [39] = target: T6, Type-1 angiotensin II receptor (Cavia porcellus, UniProt Q9WV26); test: Antagonist activity at angiotensin AT1 receptor in guinea pig ileum; format: functional, tissue-based; conditions: read-out: pA2 (converted)
# T6 sequence (Q9WV26 whole entry): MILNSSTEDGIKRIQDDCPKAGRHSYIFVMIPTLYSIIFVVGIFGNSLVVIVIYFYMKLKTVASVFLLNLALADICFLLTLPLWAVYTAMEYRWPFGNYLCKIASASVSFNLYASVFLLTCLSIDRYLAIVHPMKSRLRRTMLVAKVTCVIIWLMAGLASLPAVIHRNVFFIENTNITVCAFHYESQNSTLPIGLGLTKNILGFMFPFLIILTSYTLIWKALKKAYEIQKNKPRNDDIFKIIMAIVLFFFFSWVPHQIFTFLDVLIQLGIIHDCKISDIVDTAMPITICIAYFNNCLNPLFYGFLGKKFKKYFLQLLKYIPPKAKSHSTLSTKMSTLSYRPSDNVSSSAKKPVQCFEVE
# [40] = target: T1, Type-1 angiotensin II receptor; test: Antagonist activity at angiotensin AT1 receptor in rabbit aortic strip assessed as inhibition of angiotensin 2-induced contractile response; format: functional; conditions: read-out: pA2 (converted)
# [41] = Binding affinity to angiotensin AT1 receptor in bovine adrenal cortex membranes
smiles,measurement,setting,value
CCCCc1nn(CC(C)(C)C)c(=O)n1Cc1ccc(-c2ccccc2-c2nnn[nH]2)cc1,IC50,[1],1.2 nM
CCCCc1nn(CCCC)c(=O)n1Cc1ccc(-c2ccccc2-c2nn[nH]n2)cc1,IC50,[2],5.1 nM
same,Kb,[3],1.38 nM
Cc1nc(C)c2c(n1)N(Cc1ccc(-c3ccccc3-c3nnn[nH]3)cc1)C(=O)CC2 [TASOSARTAN],ED50,Rattus norvegicus [4],0.58 mg/kg
same,IC50,[5],5.2 nM
CCCCc1nc(Cl)c(CO)n1Cc1ccc(-c2ccccc2-c2nnn[nH]2)cc1 [LOSARTAN],IC50,[6],19 nM
same,IC50,[7],6.7 nM
same,IC50,[8],20 nM
same,Activity,[9],11.6 nM
same,ED50,Rattus norvegicus [10],0.59 mg/kg
same,pA2,[11],7.8
same,ED50,Rattus norvegicus [12],0.78 mg/kg
same,IC50,[13],0.82 nM
CCCCc1ncc(/C=C2/C(=O)N(CCCC)C(=O)N2Cc2csc(C)n2)n1Cc1ccc(C(=O)OC)cc1,Activity,Rattus norvegicus [14],25%
same,Activity,Rhesus monkey [15],27%
same,Activity,[16],3.8 nM
same,Activity,Rattus norvegicus [17],40%
CCCCc1nc2cc(OC)cc(C(=O)O)c2n1Cc1ccc(N(CC)C(C(=O)O)c2ccccc2)cc1 (centres undefined),Kb,[18],5.01 nM
CCc1cc2c(c(CC)n1)CCC(=O)N2Cc1ccc(-c2ccccc2-c2nnn[nH]2)cc1,ED50,Rattus norvegicus [19],3 mg/kg
CCCc1nc2c(C)cc(-c3nc4ccccc4n3C)cc2n1Cc1ccc(-c2ccccc2C(=O)O)cc1,Ki,[20],3.7 nM
CCCCc1nc2ccn(CC(=O)N(C)C)c(=O)c2n1Cc1ccc(-c2ccccc2-c2nnn[nH]2)cc1,IC50,[21],0.7 nM
same,IC50,[22],0.2 nM
CCCCc1nc2c(n1Cc1ccc(-c3ccccc3-c3nnn[nH]3)cc1)C(=O)N1C3CCC(CC3)N1C2,IC50,[23],1.3 nM
same,pKb,[24],10.6
CCc1nc2c(C)cc(C)nc2n1Cc1ccc(-c2ccccc2S(=O)(=O)NC(=O)NCC2CC2)cc1,ED50,Rattus norvegicus [25],0.014 µmol/kg
same,IC50,[7],1000 nM
same,ED50,Rattus norvegicus [26],0.012 mg/kg
CCCCC1=NC(Cl)=C(C(=O)O)C(C)N1Cc1ccc(-c2ccccc2-c2nn[nH]n2)cc1 (centres undefined),ED50,Rattus norvegicus [27],0.08 µmol/kg
same,Ratio ED50,Rattus norvegicus [28],20
same,Kb,[29],0.45 nM
same,Ratio Ki,[30],10
CCc1nc2c(C)cc(C)nc2n1Cc1cccc([C@@H](c2ccccc2)[C@@H](C)C(=O)O)c1,Activity,Rattus norvegicus [31],39 mmHg
same,Activity,Rattus norvegicus [32],0.069 µM
same,half-life,[33],9.1 h
same,bioavailability,[34],91%
same,Activity,Rattus norvegicus [35],24 mmHg
CCCCc1nn(-c2ccccc2C(F)(F)F)c(=O)n1Cc1ccc(-c2ccccc2S(=O)(=O)NC(=O)c2ccccc2)cc1 [L-159913],bioavailability,[34],44%
same,Ki,[36],1.7 nM
same,inhibition in vivo at 10 mg/kg,Rhesus monkey [37],76%
CCc1nc2c(C)cc(C)nc2n1Cc1ccc2nc(-c3ccccc3NS(=O)(=O)C(F)(F)F)ccc2c1 [GA0113],ED25,Rattus norvegicus [38],0.015 mg/kg
same,bioavailability,[34],94%
CCCc1nc2cc(C(=O)OC)[nH]c2n1Cc1ccc(-c2ccccc2C(=O)O)cc1,Kb,[39],15.8 nM
CCc1nc2c(C)cc(C)nc2n1Cc1ccc2c(c1)C(Cc1nnn[nH]1)c1ccccc1-2 (centres undefined),Kb,[40],0.631 nM
same,IC50,[41],11 nM
